The nature of data set [1]: Accelerated storage test of aldehyde mixture with additive, 10 ppm Cu (Example 2). Conditions: after 55° C. 14 days without cap; for C16:Acid: before test 1.05, blank 17.72; for Z9-16:Ald: before test 5.09, blank 3.05; for 16:Ald: before test 8.41, blank 6.60; for Z11-16Ald: before test 75.31, blank 54.31. Here is the method: The term “accelerated storage test” as used herein refers to a well known protocol for investigating the stability of a particular composition. The protocol is described in for example the memorandum dated 16 Nov. 2012 from The United States Environmental Protection Agency Washington, D.C. 20460 with the subject title “Accelerated Storage Stability and Corrosion Characteristics Study Protocol”. The protocol evaluates product stability at 54° C.±2° C. for 14 days.

A short description of data set [2]: Accelerated storage test of aldehyde mixture with additive, 40 ppm Cu (Example 1). Format: physicochemical. Conditions: after 55° C. 14 days without cap; for Z9-16:Ald: before test 4.3, blank 3.066023; for C16:Acid: before test 6.7, blank 18.84135; for 16:Ald: before test 7.5, blank 6.659339; for Z11-16Ald: before test 69.4, blank 54.83784, in % (unit assumed).
Procedure: To a mixture of aldehydes containing; (Z)-9-hexadecenal, (Z)-11-hexadecenal, hexadecanal, (Z)-11-hexadecen-1-ol, (Z)-11-hexadecenoic acid and 40 ppm Cu was added an additive as indicated in table 1 below. The mixture was thoroughly mixed and heated without cap in an oven at 55° C. for 14 days as an accelerated storage test.
The nature of data set [3]: Storage test of aldehyde mixture containing 4-hydroxy-TEMPO with additive (Example 4). Format: physicochemical. As to conditions: for Heptane / Z11-16:OH / 16:Acid / OH tempo / Z9-16:Ald / 15-1:Ald / 16:Ald / Z11-16:Ald: after 55° C. 14 days without cap; for Heptane: before test 0.04, without additive 0.04; for Z11-16:OH: before test 0.27, without additive 0.06; for 16:Acid: before test 1.05, without additive 6.14; for OH tempo: before test 1.19, without additive 1.11; for Z9-16:Ald: before test 5.09, without additive 3.71; for 15-1:Ald: before test 7.27, without additive 5.83; for 16:Ald: before test 8.41, without additive 6.64; for Z11-16:Ald: before test 75.31, without additive 57.21, in % (unit assumed).
Procedure: To a mixture of aldehydes containing; 4-hydroxy-TEMPO (4-hydroxy-2,2,6,6-tetramethylpiperidin-1-oxyl), (Z)-10-pentenenal, (Z)-9-hexadecenal, (Z)-11-hexadecenal, hexadecanal, (Z)-11-hexadecen-1-ol and (Z)-11-hexadecenoic acid in the composition listed in table 4 below was added up to 1% of an additive in table below. The mixture was thoroughly mixed and heated without cap in an oven at 55° C. for 14 days.

Data set [4] in a line: Storage test of aldehyde mixture containing 4-hydroxy-TEMPO and 10 ppm Copper with additive (Example 3). Conditions: for Z11-16:OH / Z10-15:Ald / 16:Acid / Z9-16:Ald / 16:Ald / Z11-16:Ald: after 55 C 14 days without cap; for Z11-16:OH: before test 2.16, blank 1.44; for Z10-15:Ald: before test 2.61, blank 2.72; for 16:Acid: before test 3.01, blank 7.94; for Z9-16:Ald: before test 5.33, blank 3.91; for 16:Ald: before test 8.16, blank 6.48; for Z11-16:Ald: before test 74.98, blank 58.18.
Procedure: To a mixture of aldehydes containing; 4-hydroxy-TEMPO (4-hydroxy-2,2,6,6-tetramethylpiperidin-1-oxyl), (Z)-10-pentenenal, (Z)-9-hexadecenal, (Z)-11-hexadecenal, hexadecanal, (Z)-11-hexadecen-1-ol (Z)-11-hexadecenoic acid and 10 ppm Copper in the composition listed in table 3 below was added up to 1% of an additive in table below. The mixture was thoroughly mixed and heated without cap in an oven at 55 C for 14 days.

Each structure is given as a SMILES string.

Take `Cc1c(C)c2c(c(C)c1O)CCC(C)(CCCC(C)CCCC(C)CCCC(C)C)O2` (racemic) [Tocopherol]: in data set [1], the “C16:Acid” value is 17.70, the “Z9-16:Ald” value was found to be 3.09, the “16:Ald” value is on record as 6.65 and the Z11-16Ald is given as 54.82. In data set [2], the “Z9-16:Ald” value was 3.379, the “C16:Acid” value is reported as 17.008, the “16:Ald” value is 6.914 and the Z11-16Ald was determined as 54.67.
`CC1(C)CC(=O)CC(C)(C)N1` [2,2,6,6-tetramethyl-4-piperidone]: in data set [3], the Heptane turned out to be 0.04, the “Z11-16:OH” value came to 0.15, the “16:Acid” value stood at 4.02 and the OH tempo stood at 1.11. In data set [3], the “Z9-16:Ald” value turned out to be 4.03, the “15-1:Ald” value is listed as 6.27, the “16:Ald” value was found to be 6.95 and the “Z11-16:Ald” value is 61.06. In data set [4] (10 ppm Copper), the “Z11-16:OH” value is recorded as 1.75, the “Z10-15:Ald” value was determined as 3.14, the “16:Acid” value was determined as 5.70 and the “Z9-16:Ald” value worked out at 3.83. Besides, in data set [4] (10 ppm Copper), the “16:Ald” value is listed as 6.41 and the “Z11-16:Ald” value turned out to be 59.27.
Turning to `Cn1ccnc1S` [2-mercapto-1-methylimidazole], in data set [3], the “suppressing acid formation and/or degradation of the aldehydes” value is “particularly efficient at suppressing acid formation and/or degradation of the aldehydes”, the Heptane was 0.04, the “Z11-16:OH” value is recorded as 0.28 and the “16:Acid” value amounted to 1.12. For the same compound, in data set [3], the OH tempo turned out to be 1.12, the “Z9-16:Ald” value was 4.88, the “15-1:Ald” value came out at 6.65 and the “16:Ald” value is 8.22. The “Z11-16:Ald” value in data set [3] worked out at 73.41. Also, in data set [4] (10 ppm Copper), the “Z11-16:OH” value was found to be 1.92, the “Z10-15:Ald” value worked out at 2.88, the “16:Acid” value turned out to be 2.93 and the “Z9-16:Ald” value was found to be 4.83. In data set [4] (10 ppm Copper), the “16:Ald” value came to 7.82 and the “Z11-16:Ald” value turned out to be 72.34.
Turning to `Sc1nc2ccccc2[nH]1` [2-mercapto-Benzimidazole], in data set [3], the Heptane stood at 0.04, the “Z11-16:OH” value was found to be 0.00, the “16:Acid” value stood at 4.23 and the OH tempo came to 1.05. In addition, in data set [3], the “Z9-16:Ald” value was determined as 3.43, the “15-1:Ald” value is listed as 6.16, the “16:Ald” value stood at 6.97 and the “Z11-16:Ald” value is 59.82. The OH tempo in data set [4] is recorded as 1.11. Also, the “suppressing acid formation and degradation of the aldehydes” value in data set [4] (55 C 14 days, 10 ppm Copper) is “particularly efficient at suppressing acid formation and degradation of the aldehydes”. For the same compound, in data set [4] (10 ppm Copper), the “Z11-16:OH” value is reported as 1.87, the “Z10-15:Ald” value stood at 3.10, the “16:Acid” value is given as 3.80 and the “Z9-16:Ald” value came out at 4.70. Besides, in data set [4] (10 ppm Copper), the “16:Ald” value is 7.53 and the “Z11-16:Ald” value amounted to 69.33.
On to `COc1ccc(O)c(C(C)(C)C)c1` [BHA], for which, in data set [1], the “C16:Acid” value is given as 12.64, the “Z9-16:Ald” value stood at 3.46, the “16:Ald” value is recorded as 7.33 and the Z11-16Ald stood at 61.54. Moreover, in data set [2], the “Z9-16:Ald” value is listed as 3.364, the “C16:Acid” value worked out at 15.55, the “16:Ald” value was determined as 7.158 and the Z11-16Ald is 59.48.
Regarding `Cc1cc(C(C)(C)C)c(O)c(C(C)(C)C)c1` [BHT], in data set [1], the “C16:Acid” value was 10.43, the “Z9-16:Ald” value is given as 3.73, the “16:Ald” value is 7.73 and the Z11-16Ald came out at 65.80. In data set [2], the “Z9-16:Ald” value came out at 3.425, the “C16:Acid” value came to 16.05, the “16:Ald” value is 6.958 and the Z11-16Ald came to 54.06.
Regarding `C[S+](C)[O-]` [DMSO], in data set [1], the “C16:Acid” value came out at 16.74, the “Z9-16:Ald” value was 3.10, the “16:Ald” value turned out to be 6.68 and the Z11-16Ald stood at 55.41. In addition, in data set [2], the “Z9-16:Ald” value is 3.061, the “C16:Acid” value is on record as 19.17, the “16:Ald” value came to 6.722 and the Z11-16Ald is reported as 55.24.
Take `CN(C)CCO` [Dimethylethanolamine]: in data set [1], the “C16:Acid” value is reported as 17.70, the “Z9-16:Ald” value was 3.09, the “16:Ald” value stood at 6.65 and the Z11-16Ald is recorded as 54.82. Besides, in data set [2], the “Z9-16:Ald” value was found to be 0, the “C16:Acid” value came out at 11.55, the “16:Ald” value stood at 1.242 and the Z11-16Ald was 8.128.
Regarding `OCC(O)CO` [Glycerol], in data set [1], the “C16:Acid” value was found to be 16.74, the “Z9-16:Ald” value was 0.00, the “16:Ald” value came to 6.75 and the Z11-16Ald is given as 55.52. In data set [2], the “Z9-16:Ald” value was found to be 3.115, the “C16:Acid” value came to 18.83, the “16:Ald” value is on record as 6.736 and the Z11-16Ald is reported as 54.86.
In the case of `C1COCCN1` [Morpholine], in data set [1], the “C16:Acid” value is on record as 12.54, the “Z9-16:Ald” value worked out at 3.23, the “16:Ald” value was determined as 6.84 and the Z11-16Ald was 57.13. For the same compound, in data set [2], the “Z9-16:Ald” value is 2.255, the “C16:Acid” value came to 12.35, the “16:Ald” value turned out to be 4.755 and the Z11-16Ald was 40.03.
In the case of `CCCOC(=O)c1cc(O)c(O)c(O)c1` [Propyl Gallate], in data set [1], the “C16:Acid” value worked out at 11.32, the “Z9-16:Ald” value was found to be 3.83, the “16:Ald” value was 3.81 and the Z11-16Ald worked out at 67.75. In data set [2], the “Z9-16:Ald” value came to 3.464, the “C16:Acid” value was 14.55, the “16:Ald” value is on record as 7.376 and the Z11-16Ald is 61.55.
As to `[Na+].[OH-]` [Sodium Hydroxide], in data set [1], the “C16:Acid” value was 12.93, the “Z9-16:Ald” value is 3.18, the “16:Ald” value was found to be 6.65 and the Z11-16Ald was 55.97. Besides, in data set [2], the “Z9-16:Ald” value stood at 2.927, the “C16:Acid” value worked out at 16.74, the “16:Ald” value was 6.224 and the Z11-16Ald was found to be 51.62.
For the compound `O=S1(=O)CCCC1` [Sulfolane], in data set [1], the “C16:Acid” value is listed as 16.92, the “Z9-16:Ald” value came out at 3.08, the “16:Ald” value is on record as 6.60 and the Z11-16Ald is listed as 54.29. In addition, in data set [2], the “Z9-16:Ald” value is 3.077, the “C16:Acid” value came out at 18.34, the “16:Ald” value amounted to 6.666 and the Z11-16Ald is 54.91.
For the compound `Cc1cc(-n2nc3ccc(Cl)cc3n2)c(O)c(C(C)(C)C)c1` [Sumisorb], in data set [1], the “C16:Acid” value came to 15.21, the “Z9-16:Ald” value is 3.20, the “16:Ald” value is reported as 6.81 and the Z11-16Ald is listed as 56.62. Also, in data set [2], the “Z9-16:Ald” value is listed as 3.325, the “C16:Acid” value came out at 17.1, the “16:Ald” value was 6.835 and the Z11-16Ald was 52.4909.
On to `CC(C)(C)c1cc(O)ccc1O` [TBHQ], for which, in data set [1], the “C16:Acid” value came to 10.34, the “Z9-16:Ald” value is on record as 3.67, the “16:Ald” value turned out to be 7.75 and the Z11-16Ald is listed as 65.65. Besides, in data set [2], the “Z9-16:Ald” value was found to be 3.367, the “C16:Acid” value stood at 16.52, the “16:Ald” value was 6.913 and the Z11-16Ald is 53.69.
On to `CC1(C)CC(OC(=O)CCCCCCCCC(=O)OC2CC(C)(C)NC(C)(C)C2)CC(C)(C)N1` [Tinuvin 770], for which, in data set [1], the “C16:Acid” value came to 16.99, the “Z9-16:Ald” value worked out at 3.12, the “16:Ald” value is reported as 6.62 and the Z11-16Ald is listed as 54.84. In data set [2], the “Z9-16:Ald” value is given as 3.135, the “C16:Acid” value came to 18.22, the “16:Ald” value was found to be 6.749 and the Z11-16Ald amounted to 55.81.
Turning to `Cc1ccc(O)c(-n2nc3ccccc3n2)c1` [Tinuvin P], in data set [1], the “C16:Acid” value is reported as 17.66, the “Z9-16:Ald” value turned out to be 3.07, the “16:Ald” value is reported as 6.57 and the Z11-16Ald is listed as 54.01. In data set [2], the “Z9-16:Ald” value stood at 3.085, the “C16:Acid” value is listed as 19.1541, the “16:Ald” value was 6.634 and the Z11-16Ald is 54.35.

The record behind these values is patent US20260256136A1, “STABILIZATION OF ALDEHYDES AND/OR AN ALCOHOLS” (priority 2022, published 2026).
